In PMC10537604, “Development and Assessment of 1,5–Diarylpyrazole/Oxime Hybrids Targeting EGFR and JNK–2 as Antiproliferative Agents: A Comprehensive Study through Synthesis, Molecular Docking, and Evaluation” (Molecules, 2023):
Like-named read-outs stand apart in the source and are kept apart here.

Legend:
EGFR tyrosine kinase = biological target: EGFR tyrosine kinase; set-up: method as in doi:10.21608/jabps.2021.77469.1129, PMID 24731281; settings: literature values ref [4],[29]; read-out: EGFR tyrosine kinase inhibitory activity IC50; cited from earlier work
[1] = tested on: human pancreatic cancer cell line SUIT-2; experiment: WST-8 antiproliferative assay, SUIT-2; type: cell-based
Protocol: (§1) Compounds 7a–j, 8a–j, 9a–c, and 10a–c were evaluated for in vitro anticancer activities against five different cancer cell lines, namely, human colorectal adenocarcinoma cell lines DLD-1, human cervical cancer cell line Hela, human pancreatic cancer cell line SUIT-2, human myelogenous leukemia cell line K562, and human hepatocellular carcinoma cell line HepG2 using WST-8 assay at concentrations of 100 µM to investigate the growth inhibition percent (GI%) of each compound using daunorubicin as a reference drug. […]. […] So, as a conclusion on the SAR study of those compounds as antiproliferative agents, the oxime moiety potentiated the anticancer activity and electron donating groups on R1 and R2 played an important role on this activity. Moreover, the sulfamoyl moiety on R3 seems to play a potential role in the activity of the prepared compounds (Table 1).
(§2) All selected compounds and daunorubicin were recorded as the minimum concentration required to inhibit half cell growth (IC50) and the results are listed in Table 2.
(§3) Evaluation of anticancer activity was performed according to the standard water-soluble tetrazolium-8 (WST-8) assay at the Faculty of Engineering, Yamagata University, Yonezawa, Japan, using an MTP-310 absorbance microplate reader. The EGFR inhibitory assay was carried out at the Faculty of Engineering, Yamagata University, Yonezawa, Japan, according to the protocol enzyme linked immunosorbent assay (ELISA) kits (Douset sandwich ELISA test, recombinant mouse EGFR). The JNK-2 inhibitory assay was performed at the Faculty of Engineering, Yamagata University, Yonezawa, Japan, according to the protocol of enzyme-linked immunosorbent assay (ELISA), the assay was carried out using the JNK-2 kit (Simple Step ELISA, pT183/Y185, Abcam Company, Cambridge, CB2 0AX, UK). Apoptosis and cell cycle analysis was performed at Faculty of medicine, Yamagata University, Yamagata, Japan, using BD FACS melody. Molecular docking was performed at the Nano Medical Engineering Laboratory, RIKEN Cluster for Pioneering Researchers, RIEKN, Japan, using ICM-Pro 3.8 software (MolSoft L.L.C., San Diego, CA, USA).
(§4) According to the standard water-soluble tetrazolium-8 (WST-8) assay, the current synthesized compounds have been tested for their anticancer activities against different five cancer cell lines; DLD-1, Hela, K562, SUIT-2, and HepG2 and daunorubicin was used as reference drug by the WST-8 assay. The five cells were maintained in a suspension culture, (Dulbecco’s modified eagle medium (DMEM) for SUIT-2, Hela, and HepG2 or PRIM for K562 and DLD), supplemented with 5% FBS (Fetal Bovine Serum) containing 1% of a penicillin-streptomycin (1:1) mixture. A 100 μL aliquot of cells (10,000 cells/mL) was added to a 96 well plate and incubated for 24 h at 37 °C in a humidified incubator containing 5% CO2 in the air. After 24 h, a 10 μL aliquot of test compound (concentrations varying in the range of 10–150 µM) was added to each of the 96 wells and incubated for 24 h. Then A 10 μL WST-8 solution (mixture of WST-8 and 1-methoxy PMS) was added to each well and the incubation continued for 3 h. The visible absorbance at 450 nm and 630 nm as the reference wavelength of each well was quantified using an MTP-310 absorbance microplate reader. Daunorubicin was used as a positive control. The results of cytotoxicity were recorded as growth inhibition percentages and as IC50 values.

[2] = tested on: human pancreatic cancer cell line SUIT-2; experiment: WST-8 antiproliferative assay, SUIT-2; type: cell-based; settings: WST-8 assay, six concentrations 1-100 µM
[3] = tested on: human myelogenous leukemia cell line K562; experiment: WST-8 antiproliferative assay, K562; type: cell-based
Protocol: as §1, §2, §3
as §4, with “After 24 h, a 10 μL aliquot of test compound (concentrations varying in the range of 10–150 µM) was added to each of the 96 wells and incubated for 24 h.” left out

[4] = tested on: human colorectal adenocarcinoma cell line DLD-1; experiment: WST-8 antiproliferative assay, DLD-1; type: cell-based; settings: WST-8 assay, six concentrations 1-100 µM
[5] = tested on: human hepatocellular carcinoma cell line HepG2; experiment: WST-8 antiproliferative assay, HepG2; type: cell-based; settings: WST-8 assay, six concentrations 1-100 µM
[6] = tested on: human cervical cancer cell line Hela; experiment: WST-8 antiproliferative assay, Hela; type: cell-based; settings: for inhibition at 100 µM: read-out: Growth Inhibition (GI%) Hela; for IC50: read-out: IC50 Hela
Protocol: as §1, §2, §3
as §4, with “After 24 h, a 10 μL aliquot of test compound (concentrations varying in the range of 10–150 µM) was added to each of the 96 wells and incubated for 24 h.” left out

[7] = tested on: human colorectal adenocarcinoma cell line DLD-1; experiment: WST-8 antiproliferative assay, DLD-1; type: cell-based
Protocol: as §1, §2, §3, §4

[8] = tested on: human hepatocellular carcinoma cell line HepG2; experiment: WST-8 antiproliferative assay, HepG2; type: cell-based
Protocol: as §1, §2, §3, §4

[9] = tested on: PC12 (rat adrenal-derived pheochromocytoma cells); experiment: WST-8 cytotoxicity towards normal cell line PC12; type: cell-based; settings: Rattus norvegicus, PC-12, read-out: percentage growth inhibition PC12
Protocol: The evaluation of normal cell viability is fundamental in analyzing the efficacy of target compounds and is often used in conjunction with cytotoxicity tests to help understand how target compound toxicity affects normal cell health. […] A 100 μL aliquot of cells (10,000 cells/mL) was added to a 96 well plate and incubated for 24 h at 37 °C in a humidified incubator containing 5% CO2 in the air. […] Then, a 10 μL WST-8 solution (mixture of WST-8 and 1-methoxy PMS) was added to each well and the incubation continued for 3 h. The visible absorbance at 450 nm and 630 nm as the reference wavelength of each well was quantified using an MTP-310 absorbance microplate reader. Daunorubicin was used as a positive control. The results of cytotoxicity were recorded as growth inhibition percentages and as IC50 values.

[10] = SUIT-2, 100 µM, WST-8 assay, read-out: Growth Inhibition (GI%) SUIT-2
[11] = Homo sapiens, K562, 100 µM, WST-8 assay, read-out: Growth Inhibition (GI%) K562
[12] = DLD-1, 100 µM, WST-8 assay, read-out: Growth Inhibition (GI%) DLD-1
[13] = HepG2, 100 µM, WST-8 assay, read-out: Growth Inhibition (GI%) HepG2

SMILES | IC50 (EGFR tyrosine kinase) [µM] | inhibition at 100 µM [1, 10] [%] | melting point [°C] | IC50 [2] [µM] | inhibition at 100 µM [3, 11] [%] | IC50 [4] [µM] | inhibition at 100 µM ([6]; 100 µM, WST-8 assay) [%] | inhibition at 100 µM [7, 12] [%] | inhibition at 100 µM [8, 13] [%] | also measured
COc1ccc(-c2cc(-c3ccc(C)c(C)c3)nn2C(N)=S)cc1 [Compound I] | 0.07 |  |  |  |  |  |  |  |  | 
COc1cc(C(C)=O)ccc1OC(=O)c1cc(-c2ccc(C)cc2)n(-c2ccccc2)n1 [Compound 7b, 4–Acetyl–2–methoxyphenyl–1–phenyl 5–p–tolyl–1H–pyrazole–3–carboxylate] |  | 103 | 110 to 112 | 45 | 70 | 13 | 83 | 81 | 85 | IC50 [5]: 45 µM; IC50 ([6]; WST-8 assay, six concentrations 1-100 µM): 55 µM
COc1cc(C(C)=O)ccc1OC(=O)c1cc(-c2ccc(C)cc2)n(-c2ccc(S(N)(=O)=O)cc2)n1 [Compound 7g, 4–Acetyl–2–methoxyphenyl–1–(4–sulfamoylphenyl) 5–p–tolyl–1H–pyrazole–3–carboxylate] |  | 92 | 83 to 85 | 31 | 77 | 13 | 30 | 96.7 | 66 | 
COc1cccc2c1C(=O)c1c(O)c3c(c(O)c1C2=O)C[C@@](O)(C(C)=O)C[C@@H]3O[C@H]1C[C@H](N)[C@H](O)[C@H](C)O1 [Daunorubicin, daunorubicin, reference compound] |  |  |  |  |  |  |  |  |  | inhibition at 100 µM ([1]; SUIT-2, read-out: Growth Inhibition (GI%) SUIT-2): 92%; IC50 ([1]; SUIT-2, read-out: IC50 SUIT-2): 9 µM; inhibition at 100 µM ([3]; Homo sapiens, K562, read-out: Growth Inhibition (GI%) K562): 100%; IC50 ([3]; Homo sapiens, K562, read-out: IC50 K562, WST-8 assay, six concentrations 1-100 µM): 13 µM; IC50 ([3]; read-out: IC50 K562, WST-8 assay, six concentrations 1-100 µM): 13.3 µM; inhibition at 1 µM [9]: 81%; inhibition at 50 µM [9]: 107%; inhibition at 100 µM [9]: 113%; inhibition at 100 µM [6]: 100%; IC50 [6]: 0.097 µM; inhibition at 100 µM ([7]; DLD-1, read-out: Growth Inhibition (GI%) DLD-1): 82.5%; IC50 ([7]; DLD-1, read-out: IC50 DLD-1): 30 µM; inhibition at 100 µM ([8]; HepG2, read-out: Growth Inhibition (GI%) HepG2): 100%; IC50 ([8]; HepG2, read-out: IC50 HepG2): 22 µM
Cc1ccc(-c2cc(-c3ccc4ccccc4c3)n(C3=NC(=O)CS3)n2)cc1C [II] | 0.06 |  |  |  |  |  |  |  |  | 
